{
  "source": "patent US20230227500A1",
  "about": "“NANOPARTICLE-LIKE DELIVERY SYSTEM” (Evox Therapeutics Ltd, priority 2019, published 2023)",
  "key": {"mice": {"tested_on": "mice", "assay": "Tolerability of peptide/mRNA formulation after intravenous injection", "type": "in vivo", "conditions": "6.25 mg/kg of mRNA/25 mg/kg of peptide, i.v.", "protocol": "Delivery of mRNA was tested using the 246, Oct815 and Oct2815 peptides and a luciferase-encoding mRNA (Luc mRNA). Various peptides were formulated at 1.25 mg/kg of mRNA dosing, at a peptide-to-mRNA weight ratio 4. Oct2815 was also formulated at 6.25 mg/kg of mRNA dosing, at a peptide-to-mRNA weight ratio 4. The formulations were subsequently injected intravenously into NMRI mice. After 24 h of treatment, the mice were sacrificed and the lungs, heart, liver, spleen and kidneys dissected. Luciferase activity was measured in the dissected tissues by bioluminescence imaging on an IVIS in vivo imaging system.\nThe peptides of the invention are believed to be tolerated in a dose of up to 30 mg/kg in mice, which is at least 10-fold higher than the dose commonly known to be tolerated when using any CPP of the prior art in vivo."}, "[1]": {"assay": "In vivo delivery and biodistribution of Cy5-labelled SSO, IVIS imaging of dissected tissues", "set-up": "species or system NMRI mice", "conditions": "2.5 mg/kg SSO, MR10, i.v., 48 h, FIG. 2(B)", "protocol": "In order to investigate the in vivo delivery capacity and biodistribution profile of the peptide/SSO nanoparticles, Oct2815 peptide was formulated at a dose of 50 μg (2.5 mg/kg) of Cy5-labelled 2′-OMe/LNA mixmer-based SSO (at MR10) and then injected intravenously into NMRI mice. After 48 h of treatment, the fluorescence values were measured from the dissected tissues (brain, liver, lungs, heart, G.I. tract, spleen, muscles and kidneys) of the animals with an IVIS in vivo imager."}, "HeLa pluc705 cells": {"tested_on": "HeLa pluc705 cells", "assay": "HeLa pluc705 splice correction reporter, delivery of SSOs", "type": "cell-based", "conditions": "100 nM 2'OMe SSO, 24 h, MR3-MR10, FIG. 1B", "description": "To evaluate the ability of peptides of the invention to effectively deliver SSOs into cells, the HeLa pluc705 splice correction reporter system was used as a model (FIG. 1A). In this assay, HeLa cells are stably transfected with a luciferase endocing sequence that is interrupted by the β-globin pre-mRNA carrying a crypting splice site. If the SSO is effectively delivered to the cells and reaches the cell nucleus, it masks the aberrant splicing site (depicted ON-705 on the right-hand side of FIG. 1A). By redirecting the splicing, it will give rise to the production of functional luciferase protein. The luciferase enzyme activity thus acts as a measure to assess the delivery efficacy of the SSOs. This model is known for being an excellent positive read-out system with wide dynamic range for evaluating and comparing the delivery of SSOs and different delivery vectors.\nThe peptides were formulated with 2′-O-methyl phosphorothioate (2′OMe)-based SSOs at different peptide-to-SSO molar ratios (MRs), namely MR3, MR5, MR7 and MR10. The HeLa pluc705 cells were treated with various peptide/SSO nanoformulations at 100 nM SSO concentration for 24 h. After this time, the luciferase activity was measured. Delivery efficacy was expressed as a fold-increase over the values from untreated (UT) cells (ie. fold increase in splice correction)."}, "HEK293T Stop-Light cells [2]": {"tested_on": "HEK293T Stop-Light cells", "assay": "Cas9 RNP delivery, stop-light reporter gene editing (eGFP by FACS)", "type": "cell-based", "conditions": "FIG. 5B", "description": "Delivery of proteins is another important modality for the peptides of the present invention. In order to investigate the ability of the peptides to deliver protein, a stop-light reporter system was employed. FIG. 5A illustrates the stop-light reporter system, which is a quick and simple system to evaluate indel formation in stably transduced cells. Cells are transfected with a construct containing an mCherry gene followed by two enhanced green fluorescent protein (eGFP) genes that are shifted out of frame by +1 and +2 nucleotides, respectively. The mCherry gene is constituently expressed, while the eGFP genes are only expressed if a double stranded break in the linker creates insertions or deletions of +/−1 or 2 bp. This occurs upon the effective delivery of Cas9 RNP system to the nucleus of cells, which leads to one of the two eGFP genes being in frame and thus expressed. […]\n5k HEK293T Stop-Light cells were treated with 50 ng ([…]) Cas9 that was formulated with various peptides at different peptide-to-Cas9 RNP MRs (50:1-100:1). After 72 h of treatment, eGFP expression was analysed by fluorescence-activated cell sorting (FACS) analysis. Gene editing efficiency was calculated as a percentage of cells in the cell population where eGFP expression was induced by the treatment."}, "HEK293T Stop-Light cells [3]": {"tested_on": "HEK293T Stop-Light cells", "assay": "Effect of additives on Cas9 RNP delivery, stop-light reporter", "type": "cell-based", "conditions": "FIG. 11", "protocol": "In order to investigate the effect of additives on the efficacy of the peptides/nanoparticles of the invention a range of different additives were tested and the effect on delivery of Cas9 ribonuncleoprotein (RNP) was examined using the same stop-light reporter system described above and illustrated in FIG. 5.\nPeptides Oct215 or Oct2815 were tested. Cas9 RNP was formulated in HBG buffer (HEPES buffered glucose) with either glycerol, PEG, PVP10, PVP55, PVA18, PVA40 or PVA-PEG. Oct215 or 2815 was added and incubated at room temperature for 40 min to allow peptide nanoparticles to form (1.1:1 sgRNA to Cas9 and 1:150 RNP:CPP).\nFollowing incubation HEK293T Stop-Light cells were treated with the peptide RNP complex (25 ng Cas9 added to each well). After 72 h of treatment, eGFP expression was analysed by fluorescence-activated cell sorting (FACS) analysis. Gene editing efficiency was calculated as the percentage of eGFP expressing cells in the viable mCherry expressing population, mCherry being the marker for reporter construct expression and eGFP for gene editing of said construct."}},
  "note": "Where a SMILES comes first, the peptide text is derived from it. Bridges are numbered along the chain shown (N, C = ends). [ ]: non-standard residue; d: D form. R8 = C=CCCCCCC[C@@](C)(N)C(=O)O; S8 = C=CCCCCCC[C@](C)(N)C(=O)O; S5 = C=CCCC[C@](C)(N)C(=O)O",
  "data": [
    {"compound": "C=CCCCCCC[C@@](C)(NC(=O)[C@H](C)NC(=O)[C@H](CCCCN)NC(=O)[C@H](C)NC(=O)[C@H](CC(C)C)NC(=O)[C@H](CCCCN)NC(=O)[C@@](C)(CCCCCCC=C)NC(=O)[C@@H](N)CC(C)C)C(=O)N[C@@H](C)C(=O)N[C@@H](CCCCN)C(=O)N[C@@H](CC(C)C)C(=O)N[C@@H](CC(C)C)C(=O)N[C@@H](CCCCN)C(=O)N[C@@H](C)C(=O)N[C@@](C)(CCCCCCC=C)C(=O)N[C@@H](C)C(=O)N[C@@H](CCCCN)C(=O)N[C@@H](C)C(=O)N[C@@H](CC(C)C)C(N)=O", "note": "[Oct2815, H-L A(R8) K L A K A A(R8) A K L L K A A(S8) A K A L-NH2] (H-L[R8]KLAKA[R8]AKLLKA[S8]AKAL-NH2)", "values": [
      {"measurement": "side-effects at very high dosing", "setting": "mice", "value": "without any apparent side-effects"},
      {"measurement": "accumulation of SSO in liver in comparison with SSO alone (fold enrichment)", "setting": "[1]", "value": 2.5, "unit": "fold"},
      {"measurement": "accumulation of SSO in lungs in comparison with SSO alone (fold enrichment)", "setting": "[1]", "value": 3.5, "unit": "fold"},
      {"measurement": "accumulation of SSO in spleen in comparison with SSO alone (fold enrichment)", "setting": "[1]", "value": 5, "unit": "fold"}
    ]},
    {"compound": "H-L A K L A K A A(R8) A K L L K A A(S5) A K A L-NH2 (H-LAKLAKA[R8]AKLLKA[S5]AKAL-NH2; staple 8-15; SMILES CC(C)C[C@H](NC(=O)[C@H](C)NC(=O)[C@H](CCCCN)NC(=O)[C@H](C)NC(=O)[C@]1(C)CCCC=CCCCCCC[C@@](C)(NC(=O)[C@H](C)NC(=O)[C@H](CCCCN)NC(=O)[C@H](C)NC(=O)[C@H](CC(C)C)NC(=O)[C@H](CCCCN)NC(=O)[C@H](C)NC(=O)[C@@H](N)CC(C)C)C(=O)N[C@@H](C)C(=O)N[C@@H](CCCCN)C(=O)N[C@@H](CC(C)C)C(=O)N[C@@H](CC(C)C)C(=O)N[C@@H](CCCCN)C(=O)N[C@@H](C)C(=O)N1)C(N)=O) [compound 246]", "values": [
      {"measurement": "SSO delivery and splice switching activity (fold increase in splice correction, luciferase activity)", "setting": "HeLa pluc705 cells", "value": "able to mediate effective SSO delivery and induce strong splice switching activity"}
    ]},
    {"compound": "H-L A K L A K A A(R8) A K L L K A A(S8) A K A L-NH2 (H-LAKLAKA[R8]AKLLKA[S8]AKAL-NH2; staple 8-15; SMILES CC(C)C[C@H](NC(=O)[C@H](C)NC(=O)[C@H](CCCCN)NC(=O)[C@H](C)NC(=O)[C@]1(C)CCCCCCC=CCCCCCC[C@@](C)(NC(=O)[C@H](C)NC(=O)[C@H](CCCCN)NC(=O)[C@H](C)NC(=O)[C@H](CC(C)C)NC(=O)[C@H](CCCCN)NC(=O)[C@H](C)NC(=O)[C@@H](N)CC(C)C)C(=O)N[C@@H](C)C(=O)N[C@@H](CCCCN)C(=O)N[C@@H](CC(C)C)C(=O)N[C@@H](CC(C)C)C(=O)N[C@@H](CCCCN)C(=O)N[C@@H](C)C(=O)N1)C(N)=O) [Oct815]", "values": [
      {"measurement": "SSO delivery and splice switching activity (fold increase in splice correction, luciferase activity)", "setting": "HeLa pluc705 cells", "value": "able to mediate effective SSO delivery and induce strong splice switching activity"},
      {"measurement": "relative potency among peptides (Cas9 RNP gene editing)", "setting": "HEK293T Stop-Light cells [2]", "value": "most potent"}
    ]},
    {"compound": "H-L A(R8) K L A K A A A K L L K A A(S8) A K A L-NH2 (H-L[R8]KLAKAAAKLLKA[S8]AKAL-NH2; staple 2-15; SMILES CC(C)C[C@H](NC(=O)[C@H](C)NC(=O)[C@H](CCCCN)NC(=O)[C@H](C)NC(=O)[C@]1(C)CCCCCCC=CCCCCCC[C@@](C)(NC(=O)[C@@H](N)CC(C)C)C(=O)N[C@@H](CCCCN)C(=O)N[C@@H](CC(C)C)C(=O)N[C@@H](C)C(=O)N[C@@H](CCCCN)C(=O)N[C@@H](C)C(=O)N[C@@H](C)C(=O)N[C@@H](C)C(=O)N[C@@H](CCCCN)C(=O)N[C@@H](CC(C)C)C(=O)N[C@@H](CC(C)C)C(=O)N[C@@H](CCCCN)C(=O)N[C@@H](C)C(=O)N1)C(N)=O) [Oct215]", "values": [
      {"measurement": "gene editing efficiency (efficacy of cargo delivery) with PVA-PEG", "setting": "HEK293T Stop-Light cells [3]; 25 ng Cas9, 1:150 RNP:CPP, HBG buffer with PVA-PEG, 72 h", "value": "up to 60%"},
      {"measurement": "effect of additives on efficacy", "setting": "HEK293T Stop-Light cells [3]", "value": "enhanced still further by the presence of different additives"}
    ]}
  ]
}
